Results published in US12329158B2, “Large-scale methods of uniformly coating packaging surfaces with a volatile antimicrobial to preserve food freshness” (AGROFRESH INC., priority 2013, dated 2025).
Values after ≈ are worked out from the molar mass of the structure shown.

Key:
Botrytis cinerea [1] = test: Clamshells treated by sublimation; strawberries (Example 5); format: in vivo; details: 5 mg
Procedure: Five milligrams of Compound A was dissolved in 1 ml of ethanol prior to being uniformly administered to the interior of the clamshell by painting or spraying, and then dried for 5 minutes. After coating the clamshells with Compound A using various application techniques (i.e., sublimation, spraying, or painting), eight ethanol-washed strawberries were placed in the clamshell with stem end facing downwards. Each strawberry fruit was wounded using a T15 screwdriver tip to a uniform depth of eight mm (8 mm). […] Uninoculated strawberries were removed from their commercial package, and directly transferred into treated clamshells without any washing or inoculation steps.
Treated clamshells lids were closed, and then placed at 1° C. for an initial time period of 5 days. Clamshells were then removed from low temperature, and held for a second time period of 6 days at room temperature where the point of inoculation on the strawberry fruits was assessed for indication of disease incidence reported as a percentage (%). Severity of disease incidence was also reported.
This in vivo assay was used to evaluate the ability of Compound A to volatilize from a clamshell in order to control or inhibit fruit infection by pathogenic microorganism, Botrytis cinerea. This experiment was conducted exactly as described in Example 1, with a few exceptions. After equilibrating the clamshell overnight at 21° C., Compound A was administered to the clamshell by sublimation only. Compound A was sublimed onto the surface of the clamshell at a final treatment rate of 5 mg/clamshell. Strawberries were inoculated with Botrytis cinerea, placed within the clamshell for an initial time period of 6 days, and assessed for disease incidence and severity over a second time period of 7 days as described in Example 1.

Glomerella cingulata = test: Volatile MIC assay (Example 11); format: cell-based; details: Colletotrichum gloeosporioides, G. cingulata
Procedure: A 3-mL volume of full-strength Potato Dextrose Agar (PDA) is added to each well. After cooling, 1 μL of 1×10^5 spores per mL of Botrytis cinerea, Penicillium expansum, Alternaria alternata, Glomerella cingulata, Penicillium digitatum, Monilinia fruticola, Aspergillus brasiliensis, Colletotrichum acutatum, Fusarium sambucinum, Phytophthora capsici, Geotrichum candidum, Aspergillus niger, Diplodia gossypina or Diaporthe citrii suspension is spotted onto the center of the agar. […] The headspace around the inoculum is then sealed inside the well by the film with the adhering disk containing the fungicide by inverting the plates over the treated disks and sealing to prevent any of the chemical from flaking from the disk and falling onto the inoculated agar. After 3 days of storage at 23° C., cultures are evaluated for percent growth relative to control.

Botrytis cinerea [2] = test: Volatile release from materials treated by sublimation (Example 14); format: cell-based
Procedure: An in vitro assay is used to evaluate the ability of compound A to volatilize from different materials and control fungal growth. Cardboard box (Category 1), PET plastic (Polyethylene terepthalate—PET) and Polyethylene are used. The materials are cut into equal dimensions (10×19 cm^2) and placed inside a 36-L acrylic desiccator cabinet (Fisher Scientific, cat no. 08-642-23C) in duplicate.
The acetone is allowed to evaporate for 1 minute at 60° C. Compound A is then introduced as a gas into the cabinets by a sublimation device (copper tube heated to 180° C. with fan flow at 0.5 L/min) to achieve a final headspace concentration of 0.3, 0.06 and 0.012 mg/L). The chambers are then incubated at 23° C. for 24 hours, then treated materials are carefully removed and placed inside a clean 10.8 cup SnapWare airtight container (Model #109842) containing a 10-cm diameter Petri dish with PDA and inoculated with 1 μL of […] of B. cinerea. The containers are then tightly sealed for 3 days at 23° C. After 3 days of storage, cultures are evaluated for percent growth relative to control.

Penicillium digitatum = test: Green mold on orange, contact assay (Example 25); format: in vivo; details: Contact (dip); rate not given; day 3 at 21 C after 5 days at 1 C
Procedure: A 250 mL solution of each concentration is used to dip two inoculated fruits, one minute per fruit, performed in triplicate per rate. The dipped fruits are then placed back into the clamshells and then into the SnapWare container and incubated at 1° C. for 5 days. […] Volatile application of Compound A results in excellent inhibition of browning and sporulation, whereas all other active ingredients result in no or little inhibition.

Aspergillus brasiliensis = test: Headspace treatment of inoculated grains (Example 28); format: in vivo; details: for Fungal growth on PDA (mm): 10 mg/L headspace
Procedure: An in vivo assay is used to evaluate the ability of Compound A (1-hydroxy-5-fluoro-1, 3-dihydro-2, 1-benzoxaborole) to control fungal growth of seeds.
Grains consisting of corn, wheat, rice, rye, millet and barley are surface sterilized with 0.825% NaOCl for 1 minute and rinsed thrice with sterile distilled water. The grains are inoculated by soaking them in a 1×10^6 spores/mL suspension of Aspergillus brasiliensis for 1 minute. The excess inoculum is blotted out with a sterile paper towel before plating five seeds in a Petri plate containing 25 mL of PDA. For determination of efficacy, Compound A is diluted in acetone and added to 42.5 mm Whatman #1 filter disks (Cat. No. 1001-042) attached to the inner side of the lid in a dose dependent manner to achieve a final headspace concentration of 0.4, 2, or 10 mg/L. The acetone is permitted to evaporate for five minutes before closing plate and sealing it with parafilm. The plates are incubated at 23° C. for three days.

[3] = Solubility in methanol (remark in Example 25); format: physicochemical; details: room temperature
Penicillium expansum = test: Blue mold on apple and pear, volatile assay (Example 25); details: 50 mg/L, day 3 at 21 C after 5 days at 1 C
Procedure: Two apples, pears or oranges are placed in a clamshell, and three fresh wounds are made near the equatorial region of each fruit. Each fruit wound is then inoculated with 20 μL of 1×10^6 spores per mL of Penicillium expansum or digitatum suspension, respectively. The inoculum is allowed to dry for two hours prior to treatment application as a volatile or contact.
Volatile Assay: Clamshells are then placed at the bottom of a 2.55-L SnapWare airtight container (Model #109842). […] The solutions are pipetted into Whatman filter disks mounted to the inside lid of the container. The chambers are then incubated at 1° C. for 5 days, removed to 21° C., and evaluated on day 3 by determining the diameter (mm) of rot development (browning) or sporulation.

Compound: OB1OCc2cc(F)ccc21 [Compound A, 5-fluoro-1,3-dihydro-1-hydroxy-2,1-benzoxaborole]
- Gray Mold Incidence (%) (Botrytis cinerea [1]; Inoculated Fruit, Day 0): 0.0%
- Gray Mold Severity (0-4) (Botrytis cinerea [1]; Inoculated Fruit, Day 0): 0.0
- Gray Mold Incidence (%) (Botrytis cinerea [1]; Inoculated Fruit, Day 1): 0.0%
- Gray Mold Severity (0-4) (Botrytis cinerea [1]; Inoculated Fruit, Day 1): 0.0
- Gray Mold Incidence (%) (Botrytis cinerea [1]; Inoculated Fruit, Day 2): 0.0%
- Gray Mold Severity (0-4) (Botrytis cinerea [1]; Inoculated Fruit, Day 2): 0.0
- Gray Mold Incidence (%) (Botrytis cinerea [1]; Inoculated Fruit, Day 3): 0.0%
- Gray Mold Severity (0-4) (Botrytis cinerea [1]; Inoculated Fruit, Day 3): 0.0
- Gray Mold Incidence (%) (Botrytis cinerea [1]; Inoculated Fruit, Day 4): 0.0%
- Gray Mold Severity (0-4) (Botrytis cinerea [1]; Inoculated Fruit, Day 4): 0.0
- Gray Mold Incidence (%) (Botrytis cinerea [1]; Inoculated Fruit, Day 5): 16.7%
- Gray Mold Severity (0-4) (Botrytis cinerea [1]; Inoculated Fruit, Day 5): 0.1
- Gray Mold Incidence (%) (Botrytis cinerea [1]; Inoculated Fruit, Day 6): 18.8%
- Gray Mold Severity (0-4) (Botrytis cinerea [1]; Inoculated Fruit, Day 6): 0.2
- Gray Mold Incidence (%) (Botrytis cinerea [1]; Inoculated Fruit, Day 7): 16.7%
- Gray Mold Severity (0-4) (Botrytis cinerea [1]; Inoculated Fruit, Day 7): 0.3
- Gray Mold Incidence (%) (Botrytis cinerea [1]; Uninoculated Fruit, Day 0): 0.0%
- Gray Mold Severity (0-4) (Botrytis cinerea [1]; Uninoculated Fruit, Day 0): 0.0
- Gray Mold Incidence (%) (Botrytis cinerea [1]; Uninoculated Fruit, Day 1): 2.6%
- Gray Mold Severity (0-4) (Botrytis cinerea [1]; Uninoculated Fruit, Day 1): 0.4
- Gray Mold Incidence (%) (Botrytis cinerea [1]; Uninoculated Fruit, Day 2): 0.1%
- Gray Mold Severity (0-4) (Botrytis cinerea [1]; Uninoculated Fruit, Day 2): 1.0
- Gray Mold Incidence (%) (Botrytis cinerea [1]; Uninoculated Fruit, Day 3): 26.3%
- Gray Mold Severity (0-4) (Botrytis cinerea [1]; Uninoculated Fruit, Day 3): 1.0
- Gray Mold Incidence (%) (Botrytis cinerea [1]; Uninoculated Fruit, Day 4): 34.1%
- Gray Mold Severity (0-4) (Botrytis cinerea [1]; Uninoculated Fruit, Day 4): 1.0
- Gray Mold Incidence (%) (Botrytis cinerea [1]; Uninoculated Fruit, Day 5): 40.0%
- Gray Mold Severity (0-4) (Botrytis cinerea [1]; Uninoculated Fruit, Day 5): 1.3
- Gray Mold Incidence (%) (Botrytis cinerea [1]; Uninoculated Fruit, Day 6): 43.3%
- Gray Mold Severity (0-4) (Botrytis cinerea [1]; Uninoculated Fruit, Day 6): 1.3
- Gray Mold Incidence (%) (Botrytis cinerea [1]; Uninoculated Fruit, Day 7): 54.1%
- Gray Mold Severity (0-4) (Botrytis cinerea [1]; Uninoculated Fruit, Day 7): 1.6
- MIC (Glomerella cingulata): 17.9 µg/mL (≈ 118 µM)
- Incidence (%) (Botrytis cinerea [2]; Rate 0.012 mg/L, Cardboard): 100.0%
- Incidence (%) (Botrytis cinerea [2]; Rate 0.012 mg/L, Clamshell): 100.0%
- Incidence (%) (Botrytis cinerea [2]; Rate 0.012 mg/L, Polyethylene): 99.0%
- Incidence (%) (Botrytis cinerea [2]; Rate 0.06 mg/L, Cardboard): 91.7%
- Incidence (%) (Botrytis cinerea [2]; Rate 0.06 mg/L, Clamshell): 100.0%
- Incidence (%) (Botrytis cinerea [2]; Rate 0.06 mg/L, Polyethylene): 86.7%
- Incidence (%) (Botrytis cinerea [2]; Rate 0.3 mg/L, Cardboard): 9.3%
- Incidence (%) (Botrytis cinerea [2]; Rate 0.3 mg/L, Clamshell): 4.1%
- Incidence (%) (Botrytis cinerea [2]; Rate 0.3 mg/L, Polyethylene): 4.9%
- Orange Sporulation (mm) (Penicillium digitatum): >50 mm
- Fungal growth on PDA (mm) (Aspergillus brasiliensis; Barley): 0 mm
- Fungal growth on PDA (mm) (Aspergillus brasiliensis; Corn Dry): 0 mm
- Fungal growth on PDA (mm) (Aspergillus brasiliensis; Millet): 0 mm
- Fungal growth on PDA (mm) (Aspergillus brasiliensis; Rice): 0 mm
- Fungal growth on PDA (mm) (Aspergillus brasiliensis; Rye): 0 mm
- Fungal growth on PDA (mm) (Aspergillus brasiliensis; Wheat): 0 mm
- control of Aspergillus brasiliensis (Aspergillus brasiliensis; grains, headspace treatment): 100%
- Solubility in methanol (in words) [3]: not soluble in methanol at room temperature
- Apple Browning (mm) (Penicillium expansum): 0.4 mm
- Apple Sporulation (mm) (Penicillium expansum): 0.0 mm
- Pear Browning (mm) (Penicillium expansum): 5.7 mm
- Pear Sporulation (mm) (Penicillium expansum): 0.0 mm
